According to patent US20230381133A1, “TAU AND AMYLOID PROTEIN LOWERING COMPOUNDS AND METHODS OF USE” (Qatar Foundation for Education, Science and Community …, priority 2022, published 2023):

Tests used:
[1] = test system: PSP patient; test: Treatment of a Progressive Supranuclear Palsy (PSP) patient; format: in vivo; settings: compared to a non-treated patient
Protocol: A therapeutically effective amount of the TA analog 2-(2-cyanophenylthio) benzoic acid is administered to a PSP patient.

[2] = test system: TBI patient; test: Treatment of a Traumatic Brain Injury (TBI) patient; format: in vivo; settings: compared to a non-treated patient
Protocol: A therapeutically effective amount of the TA analog 2-(2-cyanophenylthio) benzoic acid is administered to a TBI patient.

[3] = test system: FTLD patient; test: Treatment of a Frontotemporal Lobar Degeneration (FTLD) patient; format: in vivo; settings: compared to a non-treated patient
Protocol: A therapeutically effective amount of the TA analog 2-(2-cyanophenylthio) benzoic acid is administered to an FTLD patient.

[4] = test system: bvFTLD patient; test: Treatment of a Behavioral Variant Frontotemporal Dementia (bvFTLD) patient; format: in vivo; settings: compared to a non-treated patient
Protocol: A therapeutically effective amount of the TA analog 2-(2-cyanophenylthio) benzoic acid is administered to a bvFTLD patient.

[5] = test system: Down's Syndrome patient; test: Treatment of a Down's Syndrome patient; format: in vivo; settings: compared to a non-treated patient
Protocol: A therapeutically effective amount of the TA analog 2-(2-cyanophenylthio) benzoic acid is administered to a Down's Syndrome patient.

[6] = test system: corticobasal degeneration patient; test: Treatment of a corticobasal degeneration patient; format: in vivo; settings: compared to a non-treated patient
Protocol: A therapeutically effective amount of the TA analog 2-(2-cyanophenylthio) benzoic acid is administered to a corticobasal degeneration patient.

[7] = test system: AD patient; test: Treatment of an AD patient; format: in vivo; settings: compared to a non-treated patient
Protocol: A therapeutically effective amount of the TA analog 2-(2-cyanophenylthio) benzoic acid is administered to an AD patient.

[8] = test system: CTE patient; test: Treatment of a Chronic Traumatic Encephalopathy (CTE) patient; format: in vivo; settings: compared to a non-treated patient
Protocol: A therapeutically effective amount of the TA analog 2-(2-cyanophenylthio) benzoic acid is administered to a CTE patient.

[9] = test system: Pick disease patient; test: Treatment of a Pick disease patient; format: in vivo; settings: compared to a non-treated patient
Protocol: A therapeutically effective amount of the TA analog 2-(2-cyanophenylthio) benzoic acid is administered to a Pick disease patient.

[10] = target: SP1 (Homo sapiens, UniProt P08047); settings: background statement; cited from earlier work
SP1, sequence (P08047 whole entry): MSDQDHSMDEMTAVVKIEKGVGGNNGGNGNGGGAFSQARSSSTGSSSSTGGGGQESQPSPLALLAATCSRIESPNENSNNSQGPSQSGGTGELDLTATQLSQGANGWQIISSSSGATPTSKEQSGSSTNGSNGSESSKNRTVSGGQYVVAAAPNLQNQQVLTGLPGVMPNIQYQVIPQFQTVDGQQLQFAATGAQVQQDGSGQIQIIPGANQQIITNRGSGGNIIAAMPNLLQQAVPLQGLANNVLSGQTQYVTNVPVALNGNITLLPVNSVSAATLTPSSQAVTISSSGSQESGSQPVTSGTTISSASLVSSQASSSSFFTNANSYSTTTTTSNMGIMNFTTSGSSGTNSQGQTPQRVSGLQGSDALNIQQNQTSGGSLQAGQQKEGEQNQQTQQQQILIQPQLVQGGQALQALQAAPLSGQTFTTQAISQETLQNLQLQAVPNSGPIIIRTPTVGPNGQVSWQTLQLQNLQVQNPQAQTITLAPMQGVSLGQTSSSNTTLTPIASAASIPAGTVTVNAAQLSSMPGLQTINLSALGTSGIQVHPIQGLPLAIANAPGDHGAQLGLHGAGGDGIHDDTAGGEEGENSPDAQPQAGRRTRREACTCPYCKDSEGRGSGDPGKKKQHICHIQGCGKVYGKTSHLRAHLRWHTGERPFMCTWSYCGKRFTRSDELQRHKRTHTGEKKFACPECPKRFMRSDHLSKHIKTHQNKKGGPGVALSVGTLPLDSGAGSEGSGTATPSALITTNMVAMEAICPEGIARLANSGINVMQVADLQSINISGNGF

[11] = background statement; cited from earlier work

| Structure (SMILES) | patient's symptoms [1] | patient's symptoms [2] | patient's symptoms [3] | patient's symptoms [4] | patient's symptoms [5] | patient's symptoms [6] | patient's symptoms [7] | patient's symptoms [8] | patient's symptoms [9] | interaction with SP1 [10] | ability to cross the blood brain barrier (BBB) [11] |
| --- | --- | --- | --- | --- | --- | --- | --- | --- | --- | --- | --- |
| N#Cc1ccccc1Sc1ccccc1C(=O)O [2-(2-cyanophenylthio) benzoic acid, 2-(2-cyanophenylthio)benzoic acid] | symptoms are reduced | symptoms are reduced | symptoms are reduced | symptoms are reduced | symptoms are reduced | symptoms are reduced | symptoms are reduced | symptoms are reduced | symptoms are reduced |  |  |
| Cc1c(Cl)cccc1Nc1ccccc1C(=O)O [TA, Tolfenamic Acid] |  |  |  |  |  |  |  |  |  | interact directly with SP1 | cross the blood brain barrier |
